Test results: patent publication US11427548B2 (Arvinas Operations, Inc., priority 2015, dated 2022)
Read-outs that look alike come from different tables or passages of the source. Each block holds one compound with its values, some of them ahead of it.

Molecular target: T1, Androgen Receptor (Homo sapiens, UniProt P10275)
T1 construct: endogenous in cells; host or cells: VCaP cells
T1 sequence (P10275 1-920): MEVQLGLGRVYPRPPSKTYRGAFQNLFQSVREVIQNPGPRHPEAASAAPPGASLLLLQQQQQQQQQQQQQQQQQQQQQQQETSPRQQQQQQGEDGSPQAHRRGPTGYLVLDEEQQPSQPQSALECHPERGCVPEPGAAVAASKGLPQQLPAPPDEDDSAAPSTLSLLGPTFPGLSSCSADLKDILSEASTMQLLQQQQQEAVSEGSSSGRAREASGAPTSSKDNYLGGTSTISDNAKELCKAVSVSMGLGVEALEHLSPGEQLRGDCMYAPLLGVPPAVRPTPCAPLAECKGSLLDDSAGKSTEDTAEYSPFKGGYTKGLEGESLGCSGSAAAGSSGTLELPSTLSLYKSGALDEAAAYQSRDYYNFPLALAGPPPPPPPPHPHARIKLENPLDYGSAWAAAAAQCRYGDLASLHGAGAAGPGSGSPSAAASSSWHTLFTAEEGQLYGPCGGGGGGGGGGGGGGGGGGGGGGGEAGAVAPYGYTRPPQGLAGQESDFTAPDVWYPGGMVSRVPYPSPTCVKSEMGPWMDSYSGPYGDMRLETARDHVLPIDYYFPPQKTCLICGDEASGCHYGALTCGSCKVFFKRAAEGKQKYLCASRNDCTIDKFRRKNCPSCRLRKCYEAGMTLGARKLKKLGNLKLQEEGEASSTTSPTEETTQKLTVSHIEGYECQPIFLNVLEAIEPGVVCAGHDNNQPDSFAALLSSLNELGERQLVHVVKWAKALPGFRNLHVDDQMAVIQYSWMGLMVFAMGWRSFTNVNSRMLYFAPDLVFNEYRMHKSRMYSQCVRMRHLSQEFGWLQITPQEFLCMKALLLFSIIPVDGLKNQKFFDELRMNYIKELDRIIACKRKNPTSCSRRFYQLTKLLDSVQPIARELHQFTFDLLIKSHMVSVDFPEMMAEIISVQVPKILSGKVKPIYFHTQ
Test: Androgen Receptor ELISA assay (PathScan AR ELISA) in VCaP cells: AR degradation, Dmax and DC50
Assay type: cell-based
Procedure, shortened: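 VCaP cells, 30,000/well, grown ≥3 days in phenol red-free RPMI with 5% charcoal-stripped FBS; compound added in 0.1% DMSO with 0.1 nM R1881, 7 half-log doses, 24 h. Lysate AR quantified by PathScan sandwich ELISA, HRP/TMB read at 450 nm, giving DC50 and Dmax.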

[1] = read-out: VCaP DC50; concentration that caused 50% Androgen Receptor degradation, VCaP cells (Table 32)
[2] = VCaP cells; Table 36; read-out: VCaP DC50
[3] = VCaP cells; Table 35; read-out: VCaP DC50
[4] = VCaP, VCaP cells; Table 35; read-out: VCaP Dmax (%)
[5] = read-out: VCaP DC50; VCaP cells; Table 36

Structure (SMILES): Cc1ncsc1-c1ccc(CNC(=O)[C@@H]2C[C@@H](O)CN2C(=O)[C@@H](NC(=O)COCCCOCCCCOc2ccc(N3C(=S)N(c4ccc(C#N)c(Cl)c4)C(=O)C3(C)C)cc2F)C(C)(C)C)cc1 [Example 41, (2S,4R)-1-[(2S)-2-{2-[3-(4-{4-[3-(3-chloro-4-cyanophenyl)-5,5-dimethyl-4-oxo-2-sulfanylideneimidazolidin-1-yl]-2-fluorophenoxy}butoxy)propoxy]acetamido}-3,3-dimethylbutanoyl]-4-hydroxy-N-{[4-(4-methyl-1,3-thiazol-5-yl)phenyl]methyl}pyrrolidine-2-carboxamide]
Dmax (VCaP, read-out: VCaP Dmax (%)): > 71% | DC50 (read-out: VCaP DC50; concentration that caused 50% Androgen Receptor degradation, VCaP cells): < 50 nM

Structure (SMILES): Cc1ncsc1-c1ccc(CNC(=O)[C@@H]2C[C@@H](O)CN2C(=O)[C@@H](NC(=O)COc2ccc(Oc3cccc(-c4ccc(N5C(=S)N(c6ccc(C#N)c(C(F)(F)F)c6)C(=O)C5(C)C)cc4)c3)cc2)C(C)(C)C)cc1 [Example 127, (2S,4R)-1-[(2S)-2-(2-{4-[3-(4-{3-[4-cyano-3-(trifluoromethyl)phenyl]-5,5-dimethyl-4-oxo-2-sulfanylideneimidazolidin-1-yl}phenyl)phen-oxy]phenoxy}acetamido)-3,3-dimethylbutanoyl]-4-hydroxy-N-{[4-(4-methyl-1,3-thiazol-5-yl)phenyl]methyl}pyrrolidine-2-carboxamide]
Dmax (VCaP, read-out: VCaP Dmax (%)): > 71% | DC50 [1]: < 50 nM

DC50 [2]: < 50 nM | Dmax (VCaP, read-out: VCaP Dmax (%), VCaP cells; Table 36): 51 to 70%
Structure (SMILES): Cc1ncsc1-c1ccc([C@H](C)NC(=O)[C@@H]2C[C@@H](O)CN2C(=O)[C@@H](NC(=O)COCCCOCCCCCOc2ccc(C(=O)N[C@H]3C(C)(C)[C@H](Oc4ccc(C#N)c(Cl)c4)C3(C)C)cc2)C(C)(C)C)cc1 [Example 635, (2S,4R)-1-((S)-2-(2-(3-((5-(4-(((1r,3r)-3-(3-chloro-4-cyanophenoxy)-2,2,4,4-tetramethylcyclobutyl)carbamoyl)phenoxy)pen-tyl)oxy)propoxy)aceta-mido)-3,3-dimethylbutanoyl)-4-hydroxy-N-((S)-1-(4-(4-methylthiazol-5-yl)phenyl)ethyl)pyrrolidine-2-carboxamide]

Structure (SMILES): Cc1ncsc1-c1ccc([C@H](C)NC(=O)[C@@H]2C[C@@H](O)CN2C(=O)[C@@H](NC(=O)COCCCCNc2ccc(-c3ccc(N4C(=S)N(c5ccc(C#N)c(C(F)(F)F)c5)C(=O)C4(C)C)cc3)cc2)C(C)(C)C)cc1 [Example 145, (2S,4R)-1-[(2S)-2-[2-(4-{[4-(4-{3-[4-cyano-3-(trifluoromethyl)phenyl]-5,5-dimethyl-4-oxo-2-sulfanylideneimidazolidin-1-yl}phenyl)phen-yl]amino}butoxy)acetamido]-3,3-dimethylbutanoyl]-4-hydroxy-N-[(1S)-1-[4-(4-methyl-1,3-thiazol-5-yl)phenyl]ethyl]pyrrolidine-2-carboxamide]
Dmax (VCaP, read-out: VCaP Dmax (%)): > 71% | DC50 [1]: < 50 nM

DC50 [3]: < 50 nM | Dmax [4]: > 71%
Structure (SMILES): Cc1ncsc1-c1ccc([C@H](C)NC(=O)[C@@H]2C[C@@H](O)CN2C(=O)[C@@H](NC(=O)COCC2CCN(c3ccc(C(=O)N[C@H]4C(C)(C)[C@H](Oc5ccc(C#N)c(Cl)c5)C4(C)C)cc3)CC2)C(C)(C)C)cc1 [Example 447]

Structure (SMILES): Cc1ncsc1-c1ccc([C@H](C)NC(=O)C2CC3CN2C(=O)C(C(C)(C)C)NC(=O)COCCCOCCC(CCOc2ccc(N4C(=O)N(c5ccc(C#N)c(C(F)(F)F)c5)C(=O)C4(C)C)cc2)OC(=O)CCCCCn2cc(nn2)CCC(=O)O3)cc1 (stereo partly drawn) [Example 629, (63R,8S,Z)-8-(tert-butyl)-19-(2-(4-(3-(4-cyano-3-(trifluoromethyl)phenyl)-5,5-dimethyl-4-oxo-2-thioxoimidazolidin-1-yl)phenoxy)ethyl)-N-((S)-1-(4-(4-methylthiazol-5-yl)phenyl)ethyl)-4,7,10,21-tetraoxo-11H-5,12,16,20-tetraoxa-9-aza-1(4,1)-triazola-6(3,1)-pyrrolidineacyclohexaco-saphane-65-carboxamide]
Dmax (VCaP, read-out: VCaP Dmax (%)): 26 to 50% | DC50 [5]: 51 to 500 nM

DC50 [3]: < 50 nM | Dmax [4]: 51 to 70%
Structure (SMILES): Cc1ncsc1-c1ccc([C@H](C)NC(=O)[C@@H]2C[C@@H](O)CN2C(=O)[C@@H](NC(=O)COCCCCCNc2ccc(C(=O)N[C@H]3C(C)(C)[C@H](Oc4cnc(C#N)c(C(F)(F)F)c4)C3(C)C)cc2)C(C)(C)C)cc1 [Example 497]

Structure (SMILES): Cc1nccn1-c1ccc([C@H](C)NC(=O)[C@@H]2C[C@@H](O)CN2C(=O)C(C(C)C)n2cc(OCCCOCCCCCOc3ccc(N4C(=S)N(c5ccc(C#N)c(C(F)(F)F)c5)C(=O)C4(C)C)cc3)cn2)cc1 (stereo in doubt) [Example 612, (2S,4R)-1-((R)-2-(4-(3-((5-(4-(3-(4-cyano-3-(trifluoromethyl)phenyl)-5,5-dimethyl-4-oxo-2-thioxoimidazolidin-1-yl)phenoxy)pentyl)oxy)propoxy)-1H-pyrazol-1-yl)-3-methylbutanoyl)-4-hydroxy-N-((S)-1-(4-(2-methyl-1H-imidazol-1-yl)phenyl)ethyl)pyrrolidine-2-carboxamide]
VCaP Dmax (%) (VCaP cells; Table 36): _+ | DC50 [5]: > 501 nM

DC50 [3]: < 50 nM | Dmax [4]: > 71%
Structure (SMILES): Cc1ncsc1-c1ccc(CNC(=O)[C@@H]2C[C@@H](O)CN2C(=O)[C@@H](NC(=O)COCCNc2ccc(-c3ccc(C(=O)N[C@H]4C(C)(C)[C@H](Oc5ccc(C#N)c(Cl)c5)C4(C)C)cc3)cn2)C(C)(C)C)cc1 [Example 553]

Structure (SMILES): Cc1ncsc1-c1ccc([C@H](C)NC(=O)[C@@H]2C[C@@H](O)CN2C(=O)[C@@H](NC(=O)CN2C[C@@H](C)N(CCCc3ccc(C(=O)N[C@H]4C(C)(C)[C@H](Oc5ccc(C#N)c(Cl)c5)C4(C)C)cc3)C[C@@H]2C)C(C)(C)C)cc1 [Example 817, (2S,4R)-1-((S)-2-(2-((2S,5R)-4-(3-(4-(((1r, 3R)-3-(3-chloro-4-cyanophenoxy)-2,2,4,4-tetramethylcyclobutyl)carbamoyl)phenyl)propyl)-2,5-dimethylpiperazin-1-yl)acetamido)-3,3-dimethylbutanoyl)-4-hydroxy-N-((S)-1-(4-(4-methylthiazol-5-yl)phenyl)ethyl) pyrrolidine-2-carboxamide]
DC50 [2]: < 50 nM | Dmax (VCaP, read-out: VCaP Dmax (%)): > 71%

DC50 [3]: 51 to 500 nM | Dmax [4]: 51 to 70%
Structure (SMILES): CC(C)(C)[C@H](NC(=O)COCCCCCNc1ccc(C(=O)N[C@H]2C(C)(C)[C@H](Oc3ccc(C#N)c(Cl)c3)C2(C)C)cc1)C(=O)N1C[C@H](O)C[C@H]1C(=O)NCc1ccc(C(=O)O)cc1 [Example 512]

DC50 [2]: < 50 nM | Dmax (VCaP, VCaP cells; Table 36; read-out: VCaP Dmax (%)): > 71%
Structure (SMILES): Cc1ncsc1-c1ccc([C@H](C)NC(=O)[C@@H]2C[C@@H](O)CN2C(=O)[C@@H](NC(=O)CN2CCN(CCCOCc3cc(C(=O)N[C@@H](C)Cn4ccc(-c5ccc(C#N)c(Cl)c5)n4)n[nH]3)CC2)C(C)(C)C)cc1 [Example 698, N-((S)-1-(3-(3-chloro-4-cyanophenyl)-1H-pyrazol-1-yl)propan-2-yl)-5-((3-(4-(2-(((S)-1-((2S,4R)-4-hydroxy-2-(((S)-1-(4-(4-methylthiazol-5-yl)phenyl)ethyl)carbam-oyl)pyrrolidin-1-yl)-3,3-dimethyl-1-oxobutan-2-yl)amino)-2-oxoethyl)piperazin-1-yl)propoxy)methyl)-1H-pyrazole-3-carboxamide]

Structure (SMILES): Cc1ncoc1-c1ccc(CNC(=O)[C@@H]2C[C@@H](O)CN2C(=O)[C@@H](NC(=O)COCCCCOc2ccc(-c3ccc(N4C(=S)N(c5ccc(C#N)c(Cl)c5)C(=O)C4(C)C)cc3)cc2)C(C)(C)C)cc1 [Example 110, (2S,4R)-1-[(2S)-2-{2-[4-(4-{4-[3-(3-chloro-4-cyanophenyl)-5,5-dimethyl-4-oxo-2-sulfanylideneimidazolidin-1-yl]phenyl}phenoxy)butoxy]acetamido}-3,3-dimethylbutanoyl]-4-hydroxy-N-{[4-(4-methyl-1,3-oxazol-5-yl)phenyl]methyl}pyrrolidine-2-carboxamide]
Dmax (VCaP, read-out: VCaP Dmax (%)): > 71% | DC50 [1]: < 50 nM

Structure (SMILES): Cc1ncsc1-c1ccc(CNC(=O)[C@@H]2C[C@@H](O)CN2C(=O)[C@@H](NC(=O)COC[C@H]2C[C@H](Oc3ccc(-c4ccc(N5C(=S)N(c6ccc(C#N)c(C(F)(F)F)c6)C(=O)C5(C)C)cc4)cc3)C2)C(C)(C)C)cc1 [Example 565]
Dmax (VCaP, read-out: VCaP Dmax (%)): > 71% | DC50 (read-out: VCaP DC50; VCaP cells; Table 35): < 50 nM

Structure (SMILES): Cc1ncsc1-c1ccc(CNC(=O)[C@@H]2C[C@@H](O)CN2C(=O)[C@@H](NC(=O)C(C)Oc2ccc(OCCOc3ccc(N4C(=S)N(c5ccc(C#N)c(C(F)(F)F)c5)C(=O)C4(C)C)cc3)cc2)C(C)(C)C)cc1 (stereo partly drawn) [Example 374]
Dmax (VCaP, read-out: VCaP Dmax (%)): 26 to 50% | DC50 (read-out: VCaP DC50; VCaP cells; Table 34): < 50 nM
